Series [1] deals with Human immunodeficiency virus 2. As to the kind of experiment: Antiviral activity against HIV2 assessed as inhibition of viral single round replication at early time point. The format is functional, organism-based.
The nature of series [2]: Therapeutic index, ratio of TC50 human HeLa cells expressing CD4-LTR to EC50 for HIV1 entry inhibition in human HeLa cells expressing CD4-LTR. As to conditions: read-out: TI. It counts as cell-based.
In series [3] the test system is Human immunodeficiency virus 2. The experiment in a line: Antiviral activity against HIV2 ROD infected in human CEM-SS cells assessed as inhibition of virus-induced cytopathic effect by XTT assay. It counts as functional, organism-based, ISOLATE ROD. (In general: Protection from cytopathic effect is a common read-out in antiviral testing.)
Series [4] in a line: Cytotoxicity against human CEM-SS cells by XTT assay. The format is cell-based. As to conditions: read-out: TC50 (the source's name). (In general: Formazan colour is commonly taken as a measure of viable cells.)
Series [5] is described as follows: Therapeutic index, ratio of TC50 for human CEM-SS cells to EC50 for HIV1 RF infected in human CEM-SS cells. It counts as cell-based. To be noted: read-out: TI.
Series [6] deals with Human immunodeficiency virus 1. The experiment in a line: Antiviral activity against HIV1 infected in human CEM-SS cells assessed as inhibition of viral replication and virus-induced cytopathic effect by dose-response curve analysis. The format is functional. To be noted: Human immunodeficiency virus 1, CEM-SS.
In series [7] the test system is Human immunodeficiency virus 2. The experiment in a line: Antiviral activity against HIV2 assessed as inhibition of viral replication treated at time points after viral entry into host cells. The format is functional, organism-based.
Series [8] has as its target Human immunodeficiency virus type 1 reverse transcriptase (Human immunodeficiency virus 1, UniProt Q72547). As to the kind of experiment: Inhibition of wild type HIV1 reverse transcriptase assessed as 32P-labeled GMP incorporation into nascent DNA strand.
A short description of series [9]: Therapeutic index, ratio of TC50 for human CEM-SS cells to EC50 for HIV2 ROD infected in human CEM-SS cells. As to conditions: for selectivity ratio: CEM-SS cells, read-out: TI; for TI: cem-ss. The format is cell-based.
In series [10] the test system is Human immunodeficiency virus 1. The experiment in a line: Antiviral activity against HIV1 RF infected in human CEM-SS cells assessed as inhibition of virus-induced cytopathic effect by XTT assay. It counts as functional, organism-based. To be noted: Human immunodeficiency virus 1, RF.
Series [11] concerns the target Human immunodeficiency virus type 1 reverse transcriptase (Human immunodeficiency virus 1, UniProt Q72547, K103N). The experiment in a line: Inhibition of HIV1 reverse transcriptase K103N mutant assessed as 32P-labeled GMP incorporation into nascent DNA strand.
Series [12] is described as follows: Cytotoxicity against human HeLa cells expressing CD4-LTR by XTT assay. The format is cell-based. To be noted: read-out: TC50 (the source's name).
The test system of series [13] is Human immunodeficiency virus 2. As to the kind of experiment: Inhibition of HIV2 reverse transcriptase assessed as 32P-labeled GMP incorporation into nascent DNA strand at highest concentration.
In series [14] the test system is Human immunodeficiency virus 1. As to the kind of experiment: Antiviral activity against HIV1 infected in human HeLa cells expressing CD4-LTR assessed as inhibition of viral entry-related beta galactosidase expression treated for 2 hrs followed by drug wash out measured after 48 hrs by MAGI assay. To be noted: Human immunodeficiency virus 1, HeLa. The format is functional, organism-based.

For series [15], the system named is Human immunodeficiency virus 2. The experiment in a line: Inhibition of HIV2 reverse transcriptase.
Where [16] appears, read: Human immunodeficiency virus 2, ISOLATE ROD, CEM-SS, read-out: EC50.

The source made the active and inactive calls.

For orientation: EC50 means the concentration that produces a half-maximal response. What is called EC99 is the concentration at which the effect reaches the 99% level. As a reminder, the IC50 is the concentration that gives 50% inhibition. As to `CCc1c(Sc2cc(C)cc(C)c2)n(CCC2CCCC2)c(=O)[nH]c1=O`, in [1], the outcome was Active. The selectivity ratio in [2] was 60; in [5] it was 154; in series [9], 1.1. Also, the concentration for a half-maximal effect (EC50) worked out at 26.9 µM in series [3] (setting [16]), 0.18 µM in series [10] and 0.48 µM in [14]. In addition, the CC50 in series [4] and in series [12] was 29 µM each time. The EC99 in [6] worked out at 1 µM. Also, the result in series [7], in [13] and in [15] was inactive. Besides, the IC50 in [8] turned out to be 2.19 µM; in series [11], 36.8 µM.

As to `CCc1c(C(=O)c2cc(C)cc(C)c2)n(CC2CCC2)c(=O)[nH]c1=O`, the outcome in series [1] was Active. The selectivity ratio in series [2] was 14500; in [5], 60700; in series [9], 190. In addition, the results for the EC50 in [3] (setting [16]), in [10] and in series [14] were 4.5 µM, 0.014 µM and 0.06 µM, respectively. Moreover, the CC50 in series [4] and in series [12] was 850 µM each time. For the same molecule, the EC99 in series [6] was 1 µM. Moreover, the result in [7], in series [13] and in [15] was inactive. The IC50 came to 2.4 µM in series [8] and 4.38 µM in series [11].

On to `CCc1c(Sc2cc(C)cc(C)c2)n(CCC2=CCCC2)c(=O)[nH]c1=O`, for which, in series [1], the outcome was Active. Further, the selectivity ratio was 4400 in series [2], 528 in series [5] and 7.4 in series [9]. The EC50 in [3] (setting [16]) was 19.2 µM; in series [10], 0.27 µM; in series [14], 0.03 µM. Moreover, the CC50 in series [4] and in [12] was 143 µM throughout. Moreover, the 99% effect concentration (EC99) in [6] amounted to 1 µM. In addition, the outcome in series [7], in series [13] and in [15] was inactive. In addition, the IC50 in [8] was 2.16 µM; in [11], 18.3 µM.

Consider `Cc1cc(C)cc(Oc2c(C(C)C)c(=O)[nH]c(=O)n2CC2CCCC2)c1`, for which the outcome in series [1] was Active. In addition, the selectivity ratio in series [2] was 18; in series [5] it was 1050; in [9] it was 8.8. Moreover, the EC50 in series [3] (setting [16]) stood at 1.3 µM; in series [10], 0.019 µM; in [14], 0.87 µM. In addition, the values for the CC50 in series [4] and in series [12] were 11.8 µM and 15.5 µM, respectively. Moreover, the EC99 in series [6] came out at 1 µM. The result in series [7], in series [13] and in series [15] was inactive. Further, the figures for the IC50 in series [8] and in [11] were 0.157 µM and 1.14 µM, respectively.

On to `Cc1cc(C)cc(Sc2c(C(C)C)c(=O)[nH]c(=O)n2Cc2ccccc2)c1`, for which, in [1], the result was Active. Moreover, the selectivity ratio in series [2] amounted to 2340; in series [5], 165000; in series [9], 1220. In addition, the figures for the EC50 in [3] (setting [16]), in series [10] and in series [14] were 0.2 µM, 0.0012 µM and 0.08 µM, respectively. The CC50 in [4] and in series [12] was 192 µM each time. Moreover, in series [6], the EC99 stood at 1 µM. Besides, the outcome in series [7], in series [13] and in series [15] was inactive. In addition, the half-maximal inhibitory concentration (IC50) came out at 0.137 µM in [8] and 1.66 µM in series [11].

As for `CCc1c(Sc2cc(C)cc(C)c2)n(CCC2CC=CC2)c(=O)[nH]c1=O`, the result in series [1] was Active. Besides, the selectivity ratio in series [2] came to 1460; in series [5] it was 1030; in series [9], 11.4. Moreover, the EC50 came out at 1.7 µM in [3] (setting [16]), 0.0241 µM in series [10] and 0.09 µM in series [14]. For the same molecule, the CC50 is 19.5 µM in series [4] and 135 µM in series [12]. In addition, the EC99 in series [6] was found to be 1 µM. Moreover, the outcome in series [7], in series [13] and in series [15] was inactive. The results for the IC50 in series [8] and in [11] were 0.179 µM and 141 µM, respectively.

For `CCc1c(Oc2cc(C)cc(C)c2)n(CCC2CCCC2)c(=O)[nH]c1=O`, the outcome in series [1] was Active. Also, the selectivity ratio in series [2] is 24; in series [5], 57. Moreover, the EC50 result is “Not Active” in series [3] (cem-ss), 1.49 µM in series [10] and 2.35 µM in series [14]. Besides, the CC50 was 27 µM in [4] and 55.9 µM in series [12]. Besides, in series [6], the EC99 amounted to 1 µM. Further, the outcome in series [7], in series [13] and in series [15] was inactive. Besides, the IC50 in [8] was 0.549 µM; in series [11] it was 6.4 µM. Besides, the TI result in series [9] is “Not Active”.

`CCc1c(Sc2cc(C)cc(C)c2)n(CC2CC2)c(=O)[nH]c1=O`: the result in [1] was Active. The selectivity ratio in series [2] was found to be 1580; in series [5] it was 25500; in [9], 62.5. Also, the EC50 stood at 0.1 µM in series [3] (setting [16]), 0.0008 µM in series [10] and 0.009 µM in series [14]. Moreover, the CC50 was determined as 7.6 µM in series [4] and 14.4 µM in series [12]. For the same molecule, the EC99 in series [6] turned out to be 1 µM. The result in series [7], in [13] and in series [15] was inactive. Further, the half-maximal inhibitory concentration (IC50) in series [8] is 0.018 µM; in [11], 0.257 µM.

For `Cc1cc(C)cc(Oc2c(C(C)C)c(=O)[nH]c(=O)n2CCC2=CCCC2)c1`, the outcome in [1] was Active. Besides, the selectivity ratio came to 6 in [2] and 90 in [5]. Also, the EC50 entry in [3] (cem-ss) is “Not Active”; in series [10], 0.19 µM; in series [14], 2.7 µM. Further, the CC50 in series [4] was 17.1 µM; in [12], 17.4 µM. Moreover, the EC99 in series [6] was determined as 1 µM. Also, the outcome in series [7], in series [13] and in series [15] was inactive. For the same molecule, the figures for the IC50 in [8] and in [11] were 1.54 µM and 176 µM, respectively. Further, the TI entry in series [9] was “Not Active”.

As to `CCc1c(C(=O)c2cc(C)cc(C)c2)n(CCC2CC=CC2)c(=O)[nH]c1=O`, the result in series [1] was Active. Besides, the selectivity ratio in series [2] stood at 36; in series [5], 5660; in series [9], 8.8. Besides, the EC50 in series [3] (setting [16]) was 1.5 µM; in series [10] it was 0.013 µM; in [14], 1.25 µM. In addition, the CC50 was determined as 13.4 µM in [4] and 45 µM in series [12]. For the same molecule, the EC99 in [6] stood at 1 µM. Moreover, the result in series [7], in [13] and in [15] was inactive. Besides, the IC50 was 0.018 µM in [8] and 1.9 µM in [11].

These data come from ChEMBL document CHEMBL1152465, “Comparative evaluation of the inhibitory activities of a series of pyrimidinedione congeners that inhibit human immunodeficiency virus types 1 and 2” (Antimicrob Agents Chemother, 2008).
